Columns and labels:
retina [1] = details: have been reported; cited from earlier work
retinal cultures = experiment: Cytotoxicity in retinal cultures (staining profile); type: cell-based
Protocol: The cytotoxicity of NB30, NB54, NB84, NB122, NB124, and NB127 was evaluated in retinal cultures.

USH2A mutation R626X = experiment: Plasmid-based dual-luciferase read-through assay in HeLa cells, USH2A; type: cell-based; details: for read-through of the USH2A mutation (in words): FIG. 7, FIG. 9; for dose-dependence of read-through induction, USH2A: FIG. 10
Protocol: (§1) An in vitro assay was then performed to determine if the same dose-dependent suppression could be achieved using other aminoglycosides. This in vitro assay utilized a plasmid-based, dual-luciferase approach. Short sequences that include Usher syndrome nonsense mutations were cloned into the linker region between Renilla and Firefly luciferase reporters, and plasmids were transiently transfected into HeLa cells to evaluate compound read-through. This model permits an early assessment of read-through potential against disease-specific mutations. Read-through activity was evaluated using USH2A and USH1F mutations.
(§2) NB122, NB124, NB84, NB127, NB118, NB128, NB124-MeS, and NB157 were evaluated for their ability to induce read-through on the USH2A mutation R626X and the USH1F PCDH15 mutation R3X.

retina [2] = details: for tolerability in gross ophthalmological examination and ERG compared to gentamicin: in vivo
Protocol: Biocompatibility and pharmacokinetic/pharmacodynamic profiles were evaluated for the aminoglycosides NB30, NB54/Compound 37, NB84/ELX-03, NB122/ELX-01, NB124/ELX-02, NB127/ELX-04, NB118/ELX-05, and NB128/ELX-06 in patient-derived cell lines and rodent animal models.
NB122 was well-tolerated compared to gentamicin in gross ophthalmological examination and ERG when administered by intravitreal injection.

[3] = test system: nonsense mutation R262X in the Oca2 gene; experiment: Read-through after intravitreal injection in albino mice (melanin production); type: in vivo, SJL/J mice; details: for in vivo read-through as compared to gentamicin: injection to the posterior segment (back of eye); for melanin production in the eye: intravitreal injection, FIGS. 20-21
Protocol: Read-through activity following intravitreal injection of aminoglycosides was evaluated in animal models.
Albino mice (SJL/J mice) harbor the nonsense mutation R262X in the Oca2 gene resulting in an absence of melanin production in melanocytes. This model provides an initial evaluation of compound availability to the back of the eye when administered by intravitreal injection—higher concentrations of melanin correspond to greater read-through activity.
NB122, NB124, NB124-MeS, NB84, NB118, NB127, NB128, and NB157 were evaluated for read-through activity following intravitreal injection into SJL/J mice. FIGS. 20-21 show intravitreal read-through for each compound relative to gentamicin.

[4] = test system: USH1C nonsense mutation R155X; experiment: Usher protein expression, USH1C nonsense mutation; type: cell-based; details: FIG. 17
Protocol: The ability of these compounds to induce protein expression of nonsense mutations associated with Usher syndrome was evaluated using USH1C nonsense mutations.

[5] = test system: USH1F nonsense mutations R3X and R245X; experiment: Cell-Free Read-through Assay; type: biochemical; details: FIG. 5A-B
Protocol: Cell-Free Read-through Assay. NB84 and NB127 were evaluated for their ability to induce read-through of the USH1F nonsense mutations R3X and R245X in a cell-free assay.

[6] = test system: USH1F PCDH15 mutation R3X; experiment: Plasmid-based dual-luciferase read-through assay in HeLa cells, USH1F; type: cell-based; details: for read-through of the USH1F mutation (in words): FIG. 8, FIG. 9; for dose-dependence of read-through induction, USH1F: FIG. 11
Protocol: as §1, §2

[7] = test system: R213X nonsense mutation in human TP53; experiment: Protein Based Read-through Assay in DMS114 cells; type: cell-based; details: Western blot and immunofluorescence
Protocol: Protein Based Read-through Assay. NB122, NB124, NB84, NB118, and NB128 were evaluated for their protein-based read-through potential in DMS114 cells, which harbor a native R213X nonsense mutation in human TP53 as depicted in the scheme shown in FIG. 12. […] A high-throughput immunofluorescence assay measuring p53 localized at the nucleus is shown in FIG. 15 with dose-dependence studies for NB84. Lastly, FIG. 16 provides full dose response curves for NB122, NB124, NB84, NB118, and NB128 with the error bars representing a standard deviation (SD).

USH1 nonsense mutations = experiment: In vitro cell-based read-through assay in HEK293 cells; details: greater at higher concentrations, FIG. 6A-B
Source text: In Vitro Cell-Based Assay. NB84 and NB127 were next tested in an in vitro assay using HEK293 cells to determine if similar read-through activity could be achieved in a cellular environment.

[8] = test system: healthy New Zealand white rabbits; experiment: Single-dose intravitreal tolerability, ERG and histology; type: in vivo
Protocol: Biocompatibility and pharmacokinetic/pharmacodynamic profiles were then evaluated for intravitreal injection of NB118 versus gentamicin. Single-dose tolerability was screened in healthy New Zealand white rabbits and evaluated based on ERG and histology. Dark-adapted oscillatory potential and photopic b-wave amplitudes were measured pre- and nine-days post a single 300 μg or 600 μg injection of aminoglycoside as shown in FIG. 2.
Results were confirmed by a veterinary pathologist.

[9] = Intravitreal pharmacokinetic profile, retina exposure; type: in vivo, Dutch-Belted rabbits; details: 100 μg intravitreal
Protocol: Pharmacokinetic profiles of NB124 were evaluated using healthy Dutch-Belted rabbits. Rabbits were injected with 100 μg of NB124 and followed for 192 hours. […] Overall, the results support a favorable therapeutic index for intravitreal administration of any of NB124.

[10] = intravitreal, human; cited from earlier work
[11] = nine days after single 300 μg or 600 μg intravitreal injection

| Molecule | read-through of the USH2A mutation (in words) (USH2A mutation R626X) | dose-dependence of read-through induction, USH2A (USH2A mutation R626X) | tolerability in gross ophthalmological examination and ERG compared to gentamicin (retina [2]) | in vivo read-through as compared to gentamicin [3] | melanin production in the eye [3] | protein expression versus gentamicin and vehicle control [4] | read-through of the USH1F mutation (in words) [6] | dose-dependence of read-through induction, USH1F [6] | nonsense mutation read-through as measured by protein expression (full length p53) [7] | further results |
| --- | --- | --- | --- | --- | --- | --- | --- | --- | --- | --- |
| CN[C@@H]1[C@@H](O)[C@@H](O[C@@H]2[C@@H](O)[C@H](O[C@H]3O[C@H]([C@@H](C)O)[C@@H](O)[C@H](O)[C@H]3N)[C@@H](N)C[C@H]2N)OC[C@]1(C)O [Compound G418, G418] | – | – | – | – | – | – | – | – | – | reported retinal toxicities (retina [1]): dose-limiting retinal toxicities |
| NCC[C@H](O)C(=O)N[C@@H]1CC(N)[C@@H](O[C@H]2OC(CO)[C@@H](O)[C@H](O)C2N)[C@H](O[C@@H]2O[C@H](CN)[C@H](O)C2O)C1O (stereo partly shown) [NB54] | – | – | – | – | – | – | – | – | – | staining profile versus untreated retinal cultures (retinal cultures): did not significantly differ |
| C[C@@H](O)C1O[C@H](O[C@@H]2C(N)C[C@@H](NC(=O)[C@@H](O)CCN)[C@@H](O)C2O[C@@H]2O[C@H](CN)[C@H](O)C2O)[C@@H](N)C(O)[C@@H]1O (stereo partly shown) [NB84] | significant read-through | dose-dependence | well-tolerated | significant read-through | dose-dependent increase | increased protein expression | significant read-through | dose-dependence | dose-dependent | in vivo ocular tolerance, intravitreal doses (retina [2]): up to 600 μg/mL; read-through as compared to G418 and gentamicin [5]: significant read-through; read-through in cells (USH1 nonsense mutations): significant read-through |
| CC(N)C1OC(OC2C(O)C(N)CC(N)C2OC2OC(CO)C(O)C(O)C2N)C(O)C1O (stereo not shown) [NB118] | significant read-through | dose-dependence | well-tolerated | significant read-through | dose-dependent increase | – | significant read-through | dose-dependence | dose-dependent | anatomic changes in retina, H&E stained sections ([8]; rabbit, in vivo): did not produce adverse anatomic changes; impact on ERG amplitudes or implicit times ([8]; rabbit, in vivo): minimal to no impact; in vivo ocular tolerance, intravitreal doses (retina [2]): up to 600 μg/mL |
| CC(N)C1OC(OC2C(O)C(NC(=O)C(O)CCN)CC(N)C2OC2OC(CO)C(O)C(O)C2N)C(O)C1O (stereo not shown) [NB122] | – | dose-dependence | well-tolerated | significant read-through | dose-dependent increase | increased protein expression | – | dose-dependence | dose-dependent | in vivo ocular tolerance, intravitreal doses (retina [2]): up to 600 μg/mL; R3X read-through rate ([6]; R3X): 2.7%; increase over native read-through ([6]; R3X): 2.5 fold |
| CC(N)C1OC(OC2C(O)C(NS(C)(=O)=O)CC(N)C2OC2OC(C(C)O)C(O)C(O)C2N)C(O)C1O (stereo not shown) [NB124-MeS] | significant read-through | – | well-tolerated | significant read-through | dose-dependent increase | – | significant read-through | – | – | – |
| C[C@H](N)[C@H]1O[C@@H](O[C@@H]2[C@@H](O)[C@H](N)C[C@H](N)[C@H]2O[C@H]2O[C@H]([C@@H](C)O)[C@@H](O)[C@H](O)[C@H]2N)[C@H](O)[C@@H]1O [NB124] | – | dose-dependence | well-tolerated | significant read-through | dose-dependent increase | increased protein expression | – | dose-dependence | dose-dependent | time for which retina exposure covers the compound's IC50 [9]: over 48 hours; time of peak retina exposure ([9]; followed for 192 hours): 3 h |
| CC(N)C1OC(OC2C(O)C(NC(=O)C(O)CCN)CC(N)C2OC2OC(C(C)O)C(O)C(O)C2N)C(O)C1O (stereo not shown) [NB127] | significant read-through | – | well-tolerated | significant read-through | dose-dependent increase | increased protein expression | significant read-through | – | – | read-through as compared to G418 and gentamicin [5]: significant read-through; read-through in cells (USH1 nonsense mutations): significant read-through |
| CC(N)C1OC(OC2C(O)C(NC(=O)C(O)CCN)CC(N)C2OC2OC(C(C)O)C(O)C(O)C2N)C(O)C1O (stereo not shown) [NB128] | significant read-through | dose-dependence | well-tolerated | significant read-through | dose-dependent increase | – | significant read-through | dose-dependence | dose-dependent | – |
| CCCNC1CC(N)C(OC2OC(C(C)O)C(O)C(O)C2N)C(OC2OC(CN)C(O)C2O)C1O (stereo not shown) [NB147] | – | – | well-tolerated | significant read-through | – | – | – | – | – | – |
| C[C@H](N)[C@H]1O[C@@H](O[C@@H]2C(O)[C@H](N)CC(N)[C@H]2O[C@H]2OC([C@H](O)CO)[C@@H](O)[C@H](O)C2N)C(O)[C@H]1O (stereo partly shown) [NB157] | significant read-through | – | – | – | dose-dependent increase | – | significant read-through | – | – | – |
| gentamicin [reference compound] | – | – | – | – | – | – | – | – | – | dark-adapted oscillatory potential peaks (ERG) [8, 11]: ablation; photopic b-wave potentials (ERG) [8, 11]: moderate reduction; melanin ([3]; 0.2 μg intravitreal, t-test vs. vehicle control): increases melanin; dose at which toxicity observed ([3]; intravitreal, pilot study FIG. 19): 0.5 µg; half-life [10]: 40 to 60 h; reported retinal toxicities (retina [1]): dose-limiting retinal toxicities |

Source: patent US20220008445A1, “METHODS, COMPOSITIONS, AND KITS FOR TREATING OCULAR DISEASES” (ELOXX PHARMACEUTICALS, priority 2018, published 2022)
